Measured values published in article PMC10850954, “HDAC6/aggresome processing pathway importance for inflammasome formation is context-dependent” (The Journal of Biological Chemistry, 2024).

Legend:
[1] = tested on: U937 cells; experiment: CTG cell viability assay; assay type: cell-based, human; settings: U937, broad concentration range, 70 h
Experimental: (§1) U937, Jurkat, and HEK293T cells were plated with a density of 10^5 cells/ml, with 50 μl/well in a white 384 well plate (Corning #3570). Two hours after plating, XY-07-035 was dispensed to each well using HPd300e and incubated at 37 °C for 70 h. CellTiter-Glo (CTG) Luminescent Cell Viability Assay (Promega #G7572) was then used to measure cell viability. Aliquoted frozen CTG reagent and cell plates were warmed to room temperature prior to loading. After the plates were cooled to room temperature, the CTG reagent was loaded 15 μl/well with an electronic multichannel pipette. […] The luminescence signal was read over ten cycles for each data point on a PHERAstar FS microplate reader (BMG Labtech). The Relative abundance was calculated as the sum of the averages of duplicate individual 12-point dose-response data points.
(§2) Supplementary file mmc1.pdf: Supporting Figure S1 BMDM cells were primed by LPS (1 μg/ml) for 4 hrs and then challenged with 20 μM nigericin. 50 μl supernatant was collected every 15 min (up to 90 min) and mIL-1β level was determined by HTRF assay. […] DARPin F10 was detected by anti-HA antibody. […] Cells were treated with different concentrations of the degrader, and cell viability determined by CTG assay was normalized to the non-treated group. […] Supporting Figure S4: Cell viability was measured by resazurin assay, and fluorescence intensity was a representative of the viability.

[2] = tested on: Jurkat cells; experiment: CTG cell viability assay; assay type: cell-based; settings: broad concentration range, 70 h
Experimental: as §1, §2

[3] = tested on: HEK293T cells; experiment: CTG cell viability assay; assay type: cell-based; settings: broad concentration range, 70 h
Experimental: as §1, §2

[4] = molecular target: T1, HDAC6 (Homo sapiens, UniProt Q9UBN7); experiment: HDAC6 degradation in THP-1 cells (immunoblot); assay type: cell-based; design: endogenous in cells; host or cells: PBMCs (with or without LPS priming); settings: non-differentiated and PMA-differentiated THP-1 cells
T1 sequence (Q9UBN7 1-1215): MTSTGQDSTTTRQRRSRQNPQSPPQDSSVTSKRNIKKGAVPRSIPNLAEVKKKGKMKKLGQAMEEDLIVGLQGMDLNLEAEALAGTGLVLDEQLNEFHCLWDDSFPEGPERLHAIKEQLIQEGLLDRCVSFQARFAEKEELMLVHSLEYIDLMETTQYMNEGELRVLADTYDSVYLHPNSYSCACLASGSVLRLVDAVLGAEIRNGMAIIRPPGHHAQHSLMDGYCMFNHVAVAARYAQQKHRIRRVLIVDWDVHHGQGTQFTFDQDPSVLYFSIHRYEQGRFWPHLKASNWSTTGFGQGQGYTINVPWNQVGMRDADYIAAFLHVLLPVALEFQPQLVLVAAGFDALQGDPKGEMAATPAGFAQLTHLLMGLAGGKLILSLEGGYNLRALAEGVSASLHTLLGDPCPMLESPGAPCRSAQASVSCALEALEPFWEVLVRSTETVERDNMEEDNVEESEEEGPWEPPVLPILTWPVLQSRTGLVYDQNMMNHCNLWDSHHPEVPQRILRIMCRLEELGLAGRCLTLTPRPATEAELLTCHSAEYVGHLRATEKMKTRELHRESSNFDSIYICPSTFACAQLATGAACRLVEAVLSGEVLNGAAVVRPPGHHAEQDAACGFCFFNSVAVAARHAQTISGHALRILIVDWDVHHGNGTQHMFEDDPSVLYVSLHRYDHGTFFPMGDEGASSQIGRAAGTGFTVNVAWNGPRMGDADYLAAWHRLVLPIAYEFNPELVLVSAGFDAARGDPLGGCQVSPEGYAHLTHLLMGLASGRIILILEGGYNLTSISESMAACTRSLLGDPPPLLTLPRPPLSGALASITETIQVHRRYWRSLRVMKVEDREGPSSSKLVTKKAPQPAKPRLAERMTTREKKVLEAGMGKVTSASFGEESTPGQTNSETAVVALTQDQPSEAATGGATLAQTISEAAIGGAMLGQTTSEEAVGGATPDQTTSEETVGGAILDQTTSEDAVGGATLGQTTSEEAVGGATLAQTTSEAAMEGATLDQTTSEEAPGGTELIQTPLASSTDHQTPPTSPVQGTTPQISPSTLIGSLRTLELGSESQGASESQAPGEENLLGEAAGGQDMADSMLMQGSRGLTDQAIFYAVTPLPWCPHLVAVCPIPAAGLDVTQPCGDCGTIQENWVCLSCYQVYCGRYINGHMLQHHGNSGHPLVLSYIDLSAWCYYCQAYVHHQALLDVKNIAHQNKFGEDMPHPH

CN(C(=O)CCCNc1cccc2c1C(=O)N(C1CCC(=O)NC1=O)C2=O)c1ccc(NC(=O)CCCCCCC(=O)NO)cc1 (stereo not shown) [XY-07-35]
cellular toxicity [1]: does not show cellular toxicity
cellular toxicity [2]: does not show cellular toxicity
cellular toxicity [3]: does not show cellular toxicity
HDAC6 degradation [4]: did not lead to HDAC6 degradation
